The text below walks through data of patent US7223787B2, “Prenylation inhibitors reduce host cell permissiveness to viral replication” (priority 2003, dated 2007).

In one data set the test system is HCV replicon RNA. The following applies: hepatoma cells, recent studies (ref. 23); cited from earlier work.
Another data set has as its system H-Ras. Briefly: Prenylation of wild-type H-Ras (blot). Format: cell-based. The following applies: 10 μM. From the text: (§1) In contrast, FPTI-III had no effect on viral RNA levels. To confirm the specificity of GGTI-286 and FPTI-III action, we evaluated the effect of each compound on the prenylation of wild-type H-Ras, which is normally farnesylated, and a mutant H-Ras(S189L) in which the carboxyl-terminal amino acid has been changed to leucine, making it a substrate for GGTase 1 (21). […] Thus, the inhibitory activity of GGTI-286 on HCV RNA replication must be due to its action against GGTase I, and not farnesyl transferase.

The next data set concerns Rap1a. Briefly: SDS-PAGE and blot of Rap1a prenylation in Huh7-K2040 cells. The format is cell-based, human.
The subject of data set [1] is HCV RNA replication. Briefly: HCV RNA replicon levels in Huh7-K2040 cells (subgenomic replicon). As to conditions: for viral RNA levels (effect in words): 24-hour culture period; for rescue of HCV RNA levels from the suppressive action of lovastatin: lovastatin-treated Huh7-K2040 cells supplemented with the metabolite, 24-hour culture. On the technique in general: Replicon systems follow genome replication, usually without infectious particles.

The test system of data set [2] is HCV replication complex (NS5A). Description: Immunocytochemical NS5A staining of the HCV replication complex. Format: cell-based, hepatitis C virus. From the text: HCV Replication Complex Requires Protein Geranylgeranylation. Among other functions, geranylgeranylated proteins mediate the interaction of membranes with cytoskeletal proteins (8). Such interactions are likely to be required for the formation of the ER-associated HCV replication complex, which contains the viral RNA as well as the nonstructural viral proteins (1, 2). […] To test whether lovastatin affects the replication complex, we stained cells with an antibody to NS5A and an FITC-labeled second antibody. In the absence of lovastatin treatment, much of the NS5A was localized in a punctate pattern consistent with the ER localization of the HCV replication complex.

Another data set concerns H-Ras(S189L). Briefly: Prenylation of mutant H-Ras(S189L), substrate for GGTase I (blot). As to conditions: 10 μM. Format: cell-based.
From the text: as §1

For data set [3], the system named is Huh7-K2040 cells. The following applies: for cellular DNA synthesis / cellular mRNA synthesis / levels: 24 hours.
From the text: (§2) We therefore examined the influence of lovastatin upon the synthesis of DNA, mRNA, and protein in Huh7-K2040 cells.
Data set [4] has as its system West Nile virus. Briefly: WN virus replication in mammalian cell types. Format: cell-based. The following applies: several mammalian cell types.
Method: Cells and virus. Vero (ATCC CCL-81) cells are grown in minimal essential medium (MEM) supplemented with 10% fetal bovine serum (FBS). BHK-21/WI2 (BHK-21) and Aedes albopictus C6/36 (C6/36) (ATCC CRL-1660) cells are grown in Dulbecco's modification of MEM with 10% FBS and 0.1 mM nonessential amino acids. Antibiotics are added to all media at 10 U/ml of penicillin and 10 μg/ml of streptomycin. Cells are maintained in 5% CO2 at 37° C. (Vero and BHK-21) or 28° C. (C6/36). West Nile viruses are obtained from the World Arbovirus Reference Collection and stocks are grown and plaque titrated in Vero cells. Prenylation inhibitors examined over a series of 10-fold dilutions.
IFA. Indirect immunofluorescence assays (IFA) are used to detect viral protein expression in WNV RNA-transfected BHK-21 cells. After electroporation, approximately 10^5 transfected cells are spotted onto 10-mm glass coverslips. Cells on coverslips are analyzed by IFA at various times posttransfection for viral protein synthesis. […] The coverslips are washed with PBS, mounted to a slide using fluorescent mounting medium (KPL), and observed under a fluorescence microscope equipped with a video documentation system (Zeiss, Thornwood, N.Y.).
Specific infectivity assay. […] Plaques are counted after incubation of the plates for another 12 to 24 h, and the specific infectivity is calculated as the number of PFU per microgram of RNA. […]
The subject of data set [5] is West Nile virus. Briefly: WN virus replication in a mouse model. The format is in vivo.
From the text: Virulence in mice. Mice are housed in an environmentally controlled room under biosafety level 3 conditions and are given food and water ad libitum. Female outbred CD-1 mice (Charles River Laboratories, Wilmington, Mass.) are obtained at 5 weeks of age and acclimatized for 1 week. All mice are 6 weeks of age at the start of the experiment. Eight mice per group are inoculated with diluent alone or with 10^2 PFU of virus subcutaneously (s.c.) in the left rear footpad. Diluent is PBS (endotoxin-free) supplemented with 1% FBS. Mice are evaluated clinically and weighed daily for 2 weeks, then monitored daily and weighed thrice weekly for 2 more weeks. Observed clinical signs include ruffled fur, paresis, hindleg paralysis, and tremors. Morbidity is defined as exhibition of greater than 10% weight loss or clinical signs for 2 or more days. Mice are euthanized if they become moribund.
Data set [6] relates to HCV RNA replication. Briefly: HCV RNA replicon levels in Huh7-HP cells (subgenomic replicon).
For data set [7], the system named is HCV RNA replication. Description: HCV RNA replicon levels in Huh7-C5B3 cells (genome-length replicon).
Data set [8] has as its system Huh7-K2040 cells. Description: Cell viability of treated cultures. As to conditions: cultures treated over 7 days, at the concentrations used.
From the text: as §2

Take `C[C@H](CCCC(C)(C)O)[C@H]1CC[C@H]2[C@@H]3CC=C4C[C@@H](O)CC[C@]4(C)[C@H]3CC[C@]12C` [25-hydroxycholesterol]: the “level of HCV replicon RNA” value in the data set on HCV replicon RNA was “reduce the level of HCV replicon RNA”.

With `COC(=O)[C@H](CC(C)C)NC(=O)c1ccc(NC[C@@H](N)CS)cc1-c1ccccc1` [GGTI-286], the “prenylation (farnesylation) of wild-type H-Ras” value in the data set on H-Ras is on record as “inhibiting farnesylation of H-Ras”. Further, in the data set with Rap1a (10 μM), the “prenylation of endogenous Rap1a” value is given as “clear-cut inhibitory effects”. Besides, in the data set on HCV RNA replication [1] (Huh7-K2040 cells, increasing concentrations of inhibitor), the “level of HCV RNA” value was “dose-dependent decrease”. For the same molecule, the “redistribution of HCV NS5A protein from punctate to diffuse pattern” value in data set [2] is reported as “produced a redistribution”. The “prenylation (geranylgeranylation) of H-Ras(S189L)” value in the data set on H-Ras(S189L) is “inhibiting farnesylation of H-Ras as well as geranylgeranylation of H-Ras(S189L)”.

In the case of `C[C@@]1(CO)[C@H](O)CC[C@@]2(C)[C@H]1CC[C@H]1C[C@@H]3C[C@@]12CC[C@]3(O)CO` [aphidicolin], in the data set on Huh7-K2040 cells [3], the “global rate of cellular protein synthesis” value (“global rate” below) is given as “moderately suppressed”, the “cellular DNA synthesis” value was “blocked DNA synthesis” and the “cellular mRNA synthesis / levels” value is given as “did not affect”. Further, the “viral RNA levels (effect in words)” value in the data set with HCV RNA replication [1] (Huh7-K2040 cells) is “did not affect”.

For `CC(C)=CCCC(C)=CCCC(C)=CCO` [farnesol], in the data set on HCV RNA replication [1], the “rescue of HCV RNA levels from the suppressive action of lovastatin” value (shortened to “rescue of HCV RNA levels”) was “neither farnesol nor oleate, mediated a dose-dependent rescue”.

With `CC(C)=CCC/C(C)=C/CC/C(C)=C/CC/C(C)=C/CO` [geranylgeraniol], the “restoration of Rap1a geranylgeranylation” value in the data set with Rap1a (added to lovastatin-treated Huh7-K2040 cells) is on record as “eliminated the upper band”. The “rescue of HCV RNA levels” value in the data set on HCV RNA replication [1] is reported as “mediated a dose-dependent rescue”. The “prevention of loss of punctate NS5A distribution” value in [2] (added to lovastatin-treated cells) was “prevented the loss of the punctate distribution”.

On to `NC(=O)NO` [hydroxyurea], for which, in the data set with Huh7-K2040 cells [3], the “global rate” value was “moderately suppressed”, the “cellular DNA synthesis” value was “blocked DNA synthesis” and the “cellular mRNA synthesis / levels” value is given as “did not affect”. Besides, in the data set on HCV RNA replication [1] (Huh7-K2040 cells), the “viral RNA levels (effect in words)” value is reported as “did not affect”.

`CC[C@H](C)C(=O)O[C@H]1C[C@@H](C)C=C2C=C[C@H](C)[C@H](CC[C@@H]3C[C@@H](O)CC(=O)O3)[C@H]21` [lovastatin]: the WN virus replication entry in the data set on West Nile virus [4] and in the data set with West Nile virus [5] was “disrupted” in each case. The “prenylation state of Rap1a” value in the data set with Rap1a (Huh7-K2040 cells) was “caused the appearance of a slow-migrating form”. The “global rate” value in the data set with Huh7-K2040 cells [3] is reported as “moderately suppressed”. In addition, the “cellular DNA synthesis” value in the data set on Huh7-K2040 cells [3] is “did not significantly affect”. The “cellular mRNA synthesis / levels” value in the data set on Huh7-K2040 cells [3] is reported as “did not significantly affect”. The “reduction of HCV RNA levels” value in the data set with HCV RNA replication [1] (Huh7-K2040 cells, after 72 hours) is recorded as “more than 95%”; in the data set on HCV RNA replication [1] (Huh7-K2040 cells, after a 24-hour treatment) it was “more than 70%”. For the same molecule, the viral protein levels result with HCV RNA replication [1] (Huh7-K2040 cells, over a 72-hour culture period) is recorded as “reduction in viral protein levels”. The “levels of viral proteins” value with HCV RNA replication [6] and in the data set on HCV RNA replication [7] was “reduced the levels of viral proteins” in each case. Also, in data set [2] (treatment for 48 hours), the “punctate NS5A staining pattern” value is “largely disappeared”. For the same molecule, the cell viability entry with Huh7-K2040 cells [8] is “no significant effects”.

`CC(O)(CCO)CC(=O)O` (centres unmarked) [mevalonate]: the “rescue of HCV RNA levels” value in the data set with HCV RNA replication [1] is recorded as “dose-dependent rescue”.
